Experimental data published in the supplement of paper PMC8498969.

What was measured:
HEK293 [1] = experiment: maximal inhibition of ZIKV NS1 production (% inhibition); higher = stronger antiviral effect
Procedure: (§1)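 HEK293 cells in 1536-well plates were pre-treated with compound for 1 h, infected with ZIKV (MOI 1) for 24 h, and NS1 antigen (intra- plus extracellular) was measured by TR-FRET. Confirmation used 11-point 1:3 dilutions, and IC50 and maximal inhibition were fitted in GraphPad Prism.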

HEK293 [2] = experiment: cytotoxicity IC50 (ATP content, uninfected cells); higher = less cytotoxic; conditions: infection: none
HEK293 [3] = experiment: IC50 for inhibition of ZIKV NS1 production
Procedure: as §1

Row | SMILES | maximal inhibition (HEK293 [1]) | cytotoxicity IC50 (HEK293 [2]) | IC50 (HEK293 [3])
1 | Cc1ccc(NC(=O)c2ccc(CN3CCN(C)CC3)cc2)cc1Nc1nccc(-c2cccnc2)n1 | 64 | 41 µM | 60 µM
2 | O=C1c2ccccc2-[n+]2ccc3c([nH]c4ccccc43)c21 | 86 | 7.5 µM | 2 µM
3 | NC(=O)Nc1cc(-c2cccc(F)c2)sc1C(=O)N[C@H]1CCCNC1 | 99 | > 100 µM | 0.37 µM
4 | COc1cc(NCc2ccc3nc(N)nc(N)c3c2C)cc(OC)c1OC | 99 | 2.2 µM | 1.6 µM
5 | NS(=O)(=O)c1cccc2c1C(=O)c1cccc(O)c1C2=O | 98 | 2.8 µM | 2.6 µM
6 | C[C@H]1O[C@@H](O[C@H]2[C@@H](O)C[C@H](O[C@H]3[C@@H](O)C[C@H](O[C@H]4CC[C@@]5(C)[C@H](CC[C@@H]6[C@@H]5C[C@@H](O)[C@]5(C)[C@@H](C7=CC(=O)OC7)CC[C@]65O)C4)O[C@@H]3C)O[C@@H]2C)C[C@H](O)[C@@H]1O | 104 | 60 µM | 0.15 µM
7 | CC(NCc1ccc2c(c1)nc(NC(=O)c1ccc(-c3cn[nH]c3)s1)n2CC(C)(C)O)C(C)(C)C (configuration not stated) | 101 | > 100 µM | 9.6 µM
8 | Nc1ccc(-c2ccc3ncc4ccc(=O)n(-c5cccc(C(F)(F)F)c5)c4c3c2)cn1 | 90 | > 100 µM | 0.72 µM
9 | CN[C@@H]1C[C@H]2O[C@@](C)([C@@H]1OC)n1c3ccccc3c3c4c(c5c6ccccc6n2c5c31)C(=O)N[C@H]4O | 96 | 100 µM | 0.76 µM
10 | CC(C)(C)c1cnc(CSc2cnc(NC(=O)C3CCNCC3)s2)o1 | 93 | > 100 µM | 1.9 µM
11 | Cc1ccc([N+](=O)[O-])cc1S(=O)(=O)N(C)/N=C/c1cnc2ccc(Br)cn12 | 101 | > 100 µM | 0.62 µM
12 | O=[N+]([O-])c1ccc(O)c2ncccc12 | 94 | 4.7 µM | 6 µM
13 | NCC(=O)Nc1ccc(-n2nc(C(F)(F)F)cc2-c2ccc3c(ccc4ccccc43)c2)cc1 | 106 | 10 µM | 0.99 µM
14 | CC1(C(=O)O)C2CCC(O2)C1(C)C(=O)O (configuration not stated) | 105 | > 100 µM | 2.6 µM
15 | c1cnc2c(c1)ccc1cccnc12 | 99 | 3.6 µM | 14 µM
16 | Cc1cnc(NC(=O)Nc2cc(Br)c(C)cc2OC[C@@H]2CNCCO2)cn1 | 101 | > 100 µM | 1.7 µM
17 | Cc1cc2c(F)c(Oc3ncnn4cc(OC[C@@H](C)O)c(C)c34)ccc2[nH]1 | 104 | 1.4 µM | 2.9 µM
18 | COc1cc2nc(N3CCN(C(=O)c4ccco4)CC3)nc(N)c2cc1OC | 104 | 40 µM | 18 µM
19 | COc1cc2nc(-c3cc(F)ccc3O)nc(N[C@@H]3CNC[C@H]3C(C)(C)O)c2cc1OC | 98 | 45 µM | 12 µM
20 | COc1c(C)c2c(c(O)c1C/C=C(\C)CCC(=O)OCCN1CCOCC1)C(=O)OC2 | 105 | > 100 µM | 0.53 µM

Row | SMILES | maximal inhibition (HEK293 [1]) | cytotoxicity IC50 (HEK293 [2]) | IC50 (HEK293 [3])
21 | CO[C@@H]1[C@@H](OC)[C@H](C)[C@@](O)(CC(=O)O)O[C@H]1[C@H](C)[C@H]1O[C@@]2(CC[C@@](C)([C@H]3CC[C@@](C)([C@@H]4O[C@@H]([C@H]5O[C@](C)(O)[C@H](C)C[C@@H]5C)C[C@@H]4O[C@@H]4C[C@H](OC)[C@@H](OC)[C@H](C)O4)O3)O2)C[C@H](O)[C@H]1C | 100 | 1.5 µM | 1.4 µM
22 | CC(C)[C@]12O[C@H]1[C@@H]1O[C@]13[C@]1(O[C@H]1C[C@H]1C4=C(CC[C@@]13C)C(=O)OC4)[C@@H]2O | 73 | > 100 µM | 0.47 µM
23 | CCCCCCCCc1ccc(CCC(N)(CO)CO)cc1 | 102 | > 100 µM | 14 µM
24 | CCc1ccc(OCc2ccccc2C(=O)Nc2ccc3nc(C)cc(N)c3c2)cc1 | 104 | 11 µM | 14 µM
25 | COC(=O)Nc1nc2cc(C(=O)c3ccccc3)ccc2[nH]1 | 69 | > 100 µM | 1 µM
26 | Cc1n[nH]c2ccc(-c3cncc(OC[C@@H](N)Cc4c[nH]c5ccccc45)c3)cc12 | 103 | > 100 µM | 8.5 µM
27 | CN(C)c1ccc(C(=C2C=CC(=[N+](C)C)C=C2)c2ccccc2)cc1 | 102 | 1.8 µM | 1.6 µM
28 | C[C@H]1CCC/C=C/[C@@H]2C[C@H](O)C[C@H]2[C@H](O)/C=C/C(=O)O1 | 99 | > 100 µM | 0.43 µM
29 | CN1CC[C@H](c2c(O)cc(O)c3c(=O)cc(-c4ccccc4Cl)oc23)[C@H](O)C1 | 93 | > 100 µM | 1.2 µM
30 | CCCCC1C(=O)N(c2ccccc2)N(c2ccc(O)cc2)C1=O (configuration not stated) | 107 | > 100 µM | 17 µM
31 | Nc1cc(C(F)(F)F)c(-c2cc(N3CCOCC3)nc(N3CCOCC3)n2)cn1 | 74 | 2.3 µM | 4.2 µM
32 | CC[C@@H]1[C@@H](C)O[C@@](O)([C@@H](C)[C@H](O)[C@H](C)[C@H]2OC(=O)/C=C/C=C/[C@H](C)[C@@H]([C@@H](C)[C@@H](O)[C@H](C)[C@@]3(O)C[C@@H](O[C@H]4C[C@H](O)[C@H](O)[C@H](C)O4)[C@H](CC)[C@@H](C)O3)OC(=O)/C=C/C=C/[C@@H]2C)C[C@H]1O[C@H]1C[C@H](O)[C@H](O)[C@H](C)O1 | 100 | 1.5 µM | 3.9 µM
33 | CC[C@@]1(O)C(=O)OCc2c1cc1n(c2=O)Cc2cc3ccccc3nc2-1 | 82 | > 100 µM | 0.026 µM
34 | CS(=O)(=O)N1CCN(Cc2cc3nc(-c4cccc5[nH]ncc45)nc(N4CCOCC4)c3s2)CC1 | 65 | 70 µM | 5.6 µM
35 | Cc1c(O)cccc1C(=O)N[C@@H](CSc1ccccc1)[C@H](O)CN1C[C@H]2CCCC[C@H]2C[C@H]1C(=O)NC(C)(C)C | 84 | > 100 µM | 24 µM
36 | O=C1[C@H](Cc2ccc(O)cc2)N2C(=O)CCN(C(=O)NCc3ccccc3)[C@H]2CN1Cc1cccc2ccccc12 | 103 | > 100 µM | 13 µM
37 | COc1cccc2c1C(=O)c1c(O)c3c(c(O)c1C2=O)C[C@@](O)(C(C)=O)C[C@@H]3O[C@H]1C[C@H](N)[C@H](O)[C@H](C)O1 | 66 | > 100 µM | 0.54 µM
38 | C[C@@H]1O[C@@H](O[C@H]2C[C@@H](O)[C@]3(CO)[C@H]4[C@H](O)C[C@]5(C)[C@@H]([C@@H]6COC(=O)C6)CC[C@]5(O)[C@@H]4CC[C@]3(O)C2)[C@H](O)[C@H](O)[C@H]1O | 103 | 0.85 µM | 1.5 µM
39 | Nc1nc(Cl)nc2c1ncn2[C@@H]1O[C@H](CO)[C@@H](O)[C@@H]1F | 94 | > 100 µM | 41 µM
